Results as given in patent publication US8569467B2, “C-glycoside compounds, and method for preparing C-glycoside compounds” (Ecole Nationale Supérieure de Chimie de Rennes, priority 2008, dated 2013).
“And” between values parts separate entries of the source, which are not always exact repeats. Equal values may be shown once.

How the values were obtained:
[1] = Tensiometric measurements of CMC/MAC and interface tension; format: physicochemical; conditions: tensiometric measurement
Description: Tensiometric measurements, namely the measurement of the CMC (Critical Micelle Concentration) and the MAC (Minimal Aggregation Concentration) were made on various compounds obtained according to the invention.

[2] = Effect on the cloud temperature of the reference surfactant C6E2; format: physicochemical
Description: Finally, the effects of various C-glycoside compounds obtained according to the invention on the cloud temperature of a surfactant were tested in order to evaluate the advantage thereof for the stabilisation of the formulations.
The surfactant taken as a reference is C6E2, diethylene glycol monohexylether.

[3] = C6E2 (1% weight) + product (10% weight)
[4] = C6E2 (1% weight) + product (1% weight)

| SMILES | CMC*/MAC** (Critical Micelle Concentration / Minimum Aggregation Concentration) [1] | γCMC/MAC*** (interface tension at the CMC/MAC) [1] | Cloud temp [2, 3] | Cloud temp [2, 4] | Cloud temp ([2]; C6E2 (1% weight) alone, reference surfactant) |
| --- | --- | --- | --- | --- | --- |
| C=CCC(C)(O)C[C@@H]1OC(CO)[C@@H](O)C(O)C1O (single isomer, unassigned) [5-C(Glucosyl)-4-methylpent-1-ene-4-ol, 5-(C-Glucosyl)-4-methylpent-1-ene-4-ol] | 350 mM | 34 Mn · m^−1 | 44 °C |  |  |
| CCCCCC(=O)CC1O[C@H](CO)[C@H](O)[C@H](O)[C@H]1O (stereo partly shown) [1-C-(Galactosyl)-heptan-2-one] | 17.5 mM | 30 Mn · m^−1 |  |  |  |
| C=CCC(C)(O)CC1O[C@H](CO)[C@H](O)[C@H](O)[C@H]1O (stereo partly shown) [5-C-(Galactosyl)-4-methylpent-1-ene-4-ol] |  |  | 42 °C |  |  |

More lines, now with the values ahead:

| CMC*/MAC** (Critical Micelle Concentration / Minimum Aggregation Concentration) [1] | γCMC/MAC*** (interface tension at the CMC/MAC) [1] | Cloud temp [2, 3] | Cloud temp [2, 4] | Cloud temp ([2]; C6E2 (1% weight) alone, reference surfactant) | SMILES |
| --- | --- | --- | --- | --- | --- |
|  |  | 39 °C |  |  | C=CCC(C)(O)C[C@@H]1OC(CO)[C@@H](O[C@@H]2OC(CO)[C@H](O)C(O)C2O)C(O)C1O (single isomer, unassigned) [5-C-(Lactosyl)-4-methylpent-1-ene-4-ol, 5-(C-Lactosyl)-4-methylpent-1-en-4-ol] |
|  | 30 Mn · m^−1 and 28 Mn · m^−1 |  | 62 °C |  | CCCCCC(=O)C[C@@H]1OC(CO)[C@@H](O)C(O)C1O (stereo partly shown) [1-C-(Glucosyl)-heptan-2-one, 1-(C-Glucosyl)-heptan-2-one] |
| 17 mM | 30 Mn · m^−1 |  | 58 °C |  | CCCCCC(=O)CC1O[C@H](CO)[C@@H](O[C@@H]2O[C@H](CO)[C@H](O)[C@H](O)[C@H]2O)[C@H](O)[C@H]1O (stereo partly shown) [1-C-(Lactosyl)-heptan-2-one] |
|  |  |  |  | 34 °C | CCCCCCOCCOCCO [Example C6E2, diethylene glycol monohexylether, reference compound] |
